Patent US20090047246A1, “NOVEL INHIBITORS OF HEPATITIS C VIRUS REPLICATION” (InterMune, Inc., priority 2007, published 2009)

Target: T1, HCV NS3 helicase (Hepatitis C virus genotype 1b, UniProt P26663)
T1 construct: full-length NS3 (1-631), purified at Array BioPharma
Test: HCV Helicase Prompt FRET Assay (Example A)
Assay type: biochemical
Details: 2nd test; read-out: IC50 Activity (on 2nd test)
Method in brief: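 Full-length NS3 (1-631), 5 or 6 nM, preincubated 5 min with compound, then unwinds 50 nM FAM/BHQ-1 duplex substrate with 250 nM capture strand and 300 μM ATP in 25 mM MOPS pH 7.0, 1.5 mM MgCl2, 0.005% Triton X-100, 2% DMSO. Fluorescence (485/535 nm) followed ~30 min at room temperature; IC50 from initial rates by 4- or 5-parameter fit.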

T1 sequence (P26663 1027-1657): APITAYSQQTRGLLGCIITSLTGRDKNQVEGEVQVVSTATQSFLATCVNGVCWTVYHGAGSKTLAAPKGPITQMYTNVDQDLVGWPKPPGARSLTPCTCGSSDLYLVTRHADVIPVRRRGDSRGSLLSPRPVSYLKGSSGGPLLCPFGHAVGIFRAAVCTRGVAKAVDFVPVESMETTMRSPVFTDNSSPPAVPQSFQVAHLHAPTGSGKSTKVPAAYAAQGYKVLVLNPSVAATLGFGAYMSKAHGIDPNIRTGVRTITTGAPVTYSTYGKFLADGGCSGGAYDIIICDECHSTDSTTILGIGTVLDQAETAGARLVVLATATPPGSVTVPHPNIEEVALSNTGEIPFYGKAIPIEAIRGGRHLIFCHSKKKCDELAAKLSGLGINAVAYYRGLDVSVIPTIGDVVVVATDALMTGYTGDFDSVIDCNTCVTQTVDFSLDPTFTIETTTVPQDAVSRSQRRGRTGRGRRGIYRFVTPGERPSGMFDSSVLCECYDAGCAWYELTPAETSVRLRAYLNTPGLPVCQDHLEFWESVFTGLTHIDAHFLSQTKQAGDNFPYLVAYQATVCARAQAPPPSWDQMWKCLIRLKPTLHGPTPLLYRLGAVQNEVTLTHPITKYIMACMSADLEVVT

IC50 [µM]	Compound
> 50	COC(=O)C(c1ccccc1)c1cn(-c2ccc([N+](=O)[O-])cc2C)c2ccc(Br)cc12 (centres unmarked) [Example 387]

Same assay, conditions: HCV NS3 helicase; tables do not say whether Example A or Example B assay; read-out: IC50 Activity

IC50 [µM]	Compound
10 to 50	O=C(O)Cc1cn(Cc2csc3ccc(Cl)cc23)c2cc(N3CCCC(O)C3)ccc12 (centres unmarked) [Example 746]
< 10	CN(c1cccc(Cn2cc(CC(=O)O)c3ccccc32)c1)c1cc(Cl)ccc1Cl [Example 539]
< 10	O=C(O)Cc1cn(Cc2csc3ccc(Cl)cc23)c2cc(Oc3ccc([N+](=O)[O-])cc3)ccc12 [Example 357]
< 10	O=C(O)Cc1cn(-c2ccc(NCc3ccccc3)cc2)c2ccccc12 [Example 161]
10 to 50	O=C(O)Cc1c(C(=O)c2cccc(-c3ccnc(Cl)c3)c2)[nH]c2ccccc12 [Example 238]
10 to 50	COc1cc2c(cc1OCc1ccccc1)c(CC(=O)O)cn2Cc1csc2ccc(Cl)cc12 [Example 346]
> 50	Cc1cc([N+](=O)[O-])ccc1-n1ccc2cc(Br)ccc21 [Example 376]
< 10	Cc1ccc(-c2ccc(Cc3[nH]c4ccccc4c3CC(=O)O)cc2)cc1Cl [Example 291]
< 10	Cc1ccccc1-c1ccc(-n2cc(CC(=O)O)c3ccccc32)cc1 [Example 154]
10 to 50	CCOc1cccc(-c2cccc(C(=O)c3[nH]c4ccccc4c3CC(=O)O)c2)c1 [Example 226]
< 10	O=C(O)Cc1cn(Cc2csc3ccc(Cl)cc23)c2cc(-c3ccccc3)ccc12 [Example 353]
< 10	COc1cccc(-c2cccc(Cc3[nH]c4ccccc4c3CC(=O)O)c2)c1 [Example 298]
< 10	CC(C)N(Cc1ccccc1)c1ccc(-n2cc(CC(=O)O)c3ccccc32)cc1 [Example 167]
< 10	CC(C)c1ccc(Cn2c(C(=O)NCc3ccc([N+](=O)[O-])cc3)c(CC(=O)O)c3ccccc32)cc1 [Example 447]
< 10	O=C(O)Cc1c(C(=O)C(Cc2ccccc2)c2ccc(-c3ccccc3)cc2)[nH]c2ccccc12 (centres unmarked) [Example 251]
10 to 50	Cc1cc(NC(=O)Cc2cccs2)ccc1-n1cc(CC(=O)O)c2ccccc21 [Example 157]
< 10	Cc1cc([N+](=O)[O-])ccc1-n1cc(C(Cc2ccccc2)C(=O)O)c2cc(Br)ccc21 (centres unmarked) [Example 398]
< 10	O=C(O)Cc1cn(Cc2ccc(Oc3cc(C(F)(F)F)cc(C(F)(F)F)c3)cc2)c2ccccc12 [Example 512]
10 to 50	COC(=O)C(c1ccccc1)c1cn(-c2ccc([N+](=O)[O-])cc2C)c2ccc(Br)cc12 (centres unmarked) [Example 387]
10 to 50	Nc1cc(-c2ccc3c(CC(=O)O)cn(Cc4csc5ccc(Cl)cc45)c3c2)ccn1 [Example 747]
< 10	O=C(O)Cc1cn(Cc2cccc(Oc3cc(Cl)cc(Cl)c3)c2)c2ccccc12 [Example 487]
10 to 50	COc1cc2c(cc1OCc1ccccc1)c(CC(=O)O)cn2-c1ccc([N+](=O)[O-])cc1C [Example 342]
< 10	COC(=O)C(c1ccc([N+](=O)[O-])cc1C)c1cn(-c2ccc([N+](=O)[O-])cc2C)c2ccc(Br)cc12 (centres unmarked) [Example 396]
10 to 50	COc1cccc(Oc2ccc(Cn3cc(CC(=O)O)c4ccccc43)cc2)c1 [Example 499]

IC50 [µM]	Compound
> 50	Cc1cc([N+](=O)[O-])ccc1-n1cc(CC(=O)O)c2ccccc21 [Example 377]
10 to 50	CCOC(=O)c1c(CC(=O)O)c2cc(Br)ccc2n1Cc1ccc(C(C)C)cc1 [Example 427]
10 to 50	O=C(O)Cc1c(C(=O)c2ccc(-c3ccccc3Cl)cc2)[nH]c2ccccc12 [Example 255]
10 to 50	O=C(Cc1cn(Cc2cccc(OCc3ccccc3)c2)c2ccc(Br)cc12)NCC1CC1 [Example 185]
> 50	O=C(O)Cc1c[nH]c2c(Oc3ccc([N+](=O)[O-])cc3)cccc12 [Example 355]
10 to 50	COc1ccccc1-c1ccc(Cc2[nH]c3ccccc3c2CC(=O)O)cc1 [Example 284]
10 to 50	O=C(O)Cc1cn(Cc2csc3ccc(F)cc23)c2ccc(Br)cc12 [Example 132]
< 10	O=C(O)Cc1c(Cc2ccc(-c3ccccc3Cl)cc2)[nH]c2ccccc12 [Example 279]
10 to 50	CSc1cccc(-c2cccc(C(=O)c3[nH]c4ccccc4c3CC(=O)O)c2)c1 [Example 228]
< 10	O=C(O)Cc1c(Cc2cccc(-c3cccc(Cl)c3Cl)c2)[nH]c2ccccc12 [Example 303]
< 10	O=C(O)Cc1cn(Cc2ccc(Oc3c(F)cccc3F)cc2)c2ccccc12 [Example 587]
10 to 50	O=C(O)Cc1cn(Cc2csc3ccc(Cl)cc23)c2ccc(Br)cc12 [Example 100]
< 10	CN(c1cccc(Cn2cc(CC(=O)O)c3ccccc32)c1)c1ccc(Cl)cc1Cl [Example 538]
10 to 50	Cc1cc([N+](=O)[O-])ccc1-n1c2ccc(Br)cc2c2c(C(=O)O)cccc21 [Example 471]
10 to 50	O=C(O)Cc1cn(Cc2noc(-c3ccccc3)n2)c2ccc(OCc3ccccc3)cc12 [Example 126]
10 to 50	CCOC(=O)Cc1cn(Cc2ccc(Oc3cc(C(F)(F)F)cc(C(F)(F)F)c3)cc2)c2ccccc12 [Example 517]
10 to 50	O=C(O)Cc1cn(Cc2cc(F)cc(C(F)(F)F)c2)c2ccc(Br)cc12 [Example 134]
< 10	O=C(O)Cc1cn(Cc2ccc(Oc3cc(F)ccc3F)cc2)c2ccccc12 [Example 586]
10 to 50	CC(c1nnn[nH]1)c1cn(Cc2csc3ccc(Cl)cc23)c2ccccc12 (centres unmarked) [Example 215]
< 10	O=C(O)Cc1cn(Cc2ccc(-c3ccccc3)cc2)c2ccc(Br)cc12 [Example 109]
< 10	CN(c1cccc(Cn2cc(CC(=O)O)c3ccccc32)c1)c1cc(C(F)(F)F)cc(C(F)(F)F)c1 [Example 547]
10 to 50	O=C(O)Cc1cn(CCCc2ccccc2)c2ccc(Br)cc12 [Example 104]
< 10	O=C(O)Cc1cn(Cc2csc3ccc(Cl)cc23)c2cc(OCc3ccccc3)c(OCc3ccccc3)cc12 [Example 358]

Same assay, conditions: Table 21, compounds made using Scheme 28; read-out: IC50 Activity

IC50 [µM]	Compound
< 10	CN(c1ccc(Cl)cc1)c1ccc(Cn2cc(CC(=O)O)c3ccccc32)cc1 [Example 561]
< 10	CN(c1ccc(Cn2cc(CC(=O)O)c3ccccc32)cc1)c1cccc(C(F)(F)F)c1 [Example 566]
< 10	CN(c1ccc(Cn2cc(CC(=O)O)c3ccccc32)cc1)c1c(Cl)cccc1Cl [Example 576]

Same assay, conditions: Table 23, compounds made using Scheme 30; read-out: IC50 Activity

IC50 [µM]	Compound
< 10	O=C(O)Cc1cn(Cc2cccc(Oc3cccc(Cl)c3Cl)c2)c2ccccc12 [Example 595]

Same assay, conditions: Table 25, compounds made using Scheme 32; read-out: IC50 Activity

IC50 [µM]	Compound
10 to 50	CCOC(=O)Cc1cn(Cc2ccc(Oc3cccc(OC)c3)cc2)c2cc(-c3cc(N)cc(N)c3)ccc12 [Example 610]
10 to 50	CCOC(=O)Cc1cn(Cc2ccc(Oc3ccc(Cl)cc3)cc2)c2cc(-c3cc(N)cc(N)c3)ccc12 [Example 613]

Same assay, conditions: Table 31, compounds made using Schemes 38-45; read-out: IC50 Activity

IC50 [µM]	Compound
< 10	Nc1ccnc(-c2ccc3c(CC(=O)O)cn(Cc4csc5ccc(Cl)cc45)c3c2)n1 [Example 630]
10 to 50	Nc1nc(-c2ccc3c(CC(=O)O)cn(Cc4csc5ccc(Cl)cc45)c3c2)ncc1F [Example 633]

Same assay, conditions: Table 32, compounds made using Schemes 46-49; read-out: IC50 Activity

IC50 [µM]	Compound
< 10	NC(=O)c1nc(N)sc1-c1ccc2c(CC(=O)O)cn(Cc3csc4ccc(Cl)cc34)c2c1 [Example 654]
10 to 50	NC(=O)c1nc(N)sc1-c1ccc2c(CC(=O)O)cn(Cc3csc4ccc(Cl)cc34)c2c1 [Example 655]

Same assay, conditions: Table 33, compounds made using Scheme 50; read-out: IC50 Activity

IC50 [µM]	Compound
10 to 50	Nc1cc(-c2ccc3c(CC(=O)O)cn(Cc4csc5ccc(Cl)cc45)c3c2)ncn1 [Example 666]

Same assay, conditions: Table 34, compounds made using Schemes 51-52; read-out: IC50 Activity

IC50 [µM]	Compound
< 10	Nc1cc(N)cc(-c2ccc3c(CC(=O)O)cn(Cc4csc5ccccc45)c3c2)c1 [Example 679]
10 to 50	O=C(O)Cc1cn(Cc2csc3ccccc23)c2ccc(Br)cc12 [Example 678]
< 10	Nc1cc(-c2ccc3c(CC(=O)NS(=O)(=O)C4CC4)cn(Cc4csc5ccc(Cl)cc45)c3c2)cc([N+](=O)[O-])c1 [Example 687]
> 50	Cc1cc([N+](=O)[O-])ccc1-n1cc(C(NC(=O)C2CCNCC2)C(=O)O)c2ccccc21 (centres unmarked) [Example 674]

Same assay, conditions: Table 35, compounds made using Scheme 53; read-out: IC50 Activity

IC50 [µM]	Compound
> 50	Cc1ccc2c(Cn3cc(CC(=O)O)c4ccc(-c5cc(N)cc(N)c5)cc43)cccc2n1 [Example 704]

Same assay, conditions: Table 36, compounds made using Scheme 54; read-out: IC50 Activity

IC50 [µM]	Compound
< 10	Nc1cc(N)cc(-c2ccc3c(CC(=O)O)cn(Cc4csc5cccc(Cl)c45)c3c2)c1 [Example 727]
< 10	Nc1cc(N)cc(-c2ccc3c(CC(=O)O)cn(Cc4c(-c5cccc(Cl)c5)sc5ccccc45)c3c2)c1 [Example 715]
< 10	CCOC(=O)Cc1cn(Cc2c(-c3ccccc3)sc3ccccc23)c2cc(-c3cc(N)cc(N)c3)ccc12 [Example 712]
10 to 50	Nc1cc(N)cc(-c2ccc3c(CC(=O)O)cn(Cc4csc5cc(Cl)cc(Cl)c45)c3c2)c1 [Example 787]
10 to 50	Nc1cc(N)cc(-c2ccc3c(CC(=O)O)cn(Cc4csc5c(Cl)cccc45)c3c2)c1 [Example 725]
> 50	O=C(O)Cc1cn(Cc2csc3cccc(Cl)c23)c2cc(Br)ccc12 [Example 784]
< 10	Nc1cc(N)cc(-c2ccc3c(CC(=O)O)cn(Cc4csc5c(Cl)cc(F)cc45)c3c2)c1 [Example 726]
10 to 50	CCOC(=O)Cc1cn(Cc2c(-c3cccc(Cl)c3)sc3ccccc23)c2cc(-c3cc([N+](=O)[O-])cc([N+](=O)[O-])c3)ccc12 [Example 714]
10 to 50	COc1cc(Cl)cc2c(Cn3cc(CC(=O)O)c4ccc(-c5cc(N)cc(N)c5)cc43)csc12 [Example 722]

Same assay, conditions: Table 37, compounds made using Scheme 55; read-out: IC50 Activity

IC50 [µM]	Compound
> 50	COc1cccc(-c2ccc3c(CC(=O)O)cn(Cc4csc5ccc(Cl)cc45)c3c2)c1 [Example 746]
